The source of these data is patent publication US20260334439A1, “BCAT2 INHIBITORS” (Agios Pharmaceuticals, Inc., priority 2023, published 2026).

The assay addresses T1, BCAT2 (Homo sapiens, UniProt O15382).
T1 sequence (O15382 28-392): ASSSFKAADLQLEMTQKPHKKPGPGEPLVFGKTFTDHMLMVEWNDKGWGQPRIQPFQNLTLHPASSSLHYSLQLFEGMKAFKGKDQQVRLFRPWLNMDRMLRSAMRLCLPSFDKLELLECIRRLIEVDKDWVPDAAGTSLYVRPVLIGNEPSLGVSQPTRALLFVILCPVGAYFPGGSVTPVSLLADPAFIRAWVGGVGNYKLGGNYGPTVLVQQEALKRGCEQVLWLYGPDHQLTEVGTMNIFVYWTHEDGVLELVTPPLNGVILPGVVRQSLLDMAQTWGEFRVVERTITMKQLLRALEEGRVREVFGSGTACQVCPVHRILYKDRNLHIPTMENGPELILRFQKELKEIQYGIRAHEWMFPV
As to the kind of experiment: BCAT2 in vitro enzyme inhibition assay (hBCAT2, glutamate dehydrogenase/diaphorase/resazurin coupled fluorescence read). Type of assay: biochemical. As to conditions: hBCAT2, 1 h preincubation at 25° C., one hour reaction; average where tested multiple times. Here is the method: • 2×Buffer: 200 mM Tris pH 8.0, 300 mM NaCl, 0.1% BSA • 1.67×hBCAT2 Enzyme Mix: 0.33 μg/mL hBCAT2, 1× Buffer • 2.5×Substrate Mix: 460 µM L-leucine, 420 µM α-KetoGlutarate, 10 U/mL glutamate dehydrogenase, 10 mM NAD, […] diaphorase, […] Resazurin
BCAT2 enzyme stock solution was diluted to prepare a 1.67×hBCAT2 Enzyme Mix. 1 μL of test compound was first added to the reaction wells followed by 30 μL of 1.67×hBCAT2 Enzyme Mix and incubated at room temperature (25° C.) for one hour. Meanwhile the Substrate Mix was prepared. The reaction was initiated by the addition of 20 μL of the 2.5×Substrate Mix, bringing the final reaction mix of all components to 1×. Reactions were quenched after one hour by the addition of 25 μL of 6% SDS and reaction progress was measured via fluorescence read (Ex 540/Em 590).
Test compounds were prepared at 50×final concentration in DMSO, 1 to 3 dilutions were made for 10 points. The compounds were added to the assay as a 1 to 50 dilution (1 μL in 50 μL) to yield a top assay final concentration of 100 μM, decreasing 3-fold for 10 points. Each compound dilution series test also included an assay max (1 μL DMSO Added in lieu of compound, Full Reaction Components Included) and Min (1 μL DMSO Added in lieu of compound, 30 μl of 1.67×hBCAT2 Enzyme Mix replated by 30 μL of 1×Buffer). All tests were performed in technical duplicate.
Where a compound was tested multiple times, the average value of the tests is reported.
In turn, `CN1C[C@@H](NC(=O)c2cc(Cl)ccc2F)C[C@@H](n2c(-c3ccccc3F)nc3cnc(-c4nc[nH]n4)cc32)C1` [Example 144, 5-chloro-2-fluoro-N-((3S,5R)-5-(2-(2-fluorophenyl)-6-(1H-1,2,4-triazol-3-yl)-1H-imidazo[4,5-c]pyridin-1-yl)-1-methylpiperidin-3-yl)benzamide] came in with an IC50 of 100 to 500 nM.

In the case of `O=C(N[C@H]1CCC[C@@H](n2c(-c3ccccc3F)nc3cnc(-c4nc[nH]n4)cc32)C1)c1cc(Cl)cnn1` [Example 17, 5-chloro-N-((1S,3R)-3-(2-(2-fluorophenyl)-6-(1H-1,2,4-triazol-3-yl)-1H-imidazo[4,5-c]pyridin-1-yl)cyclohexyl)pyridazine-3-carboxamide], the IC50 is under 100 nM.

`CN1C[C@@H](NC(=O)c2cc(Cl)ccn2)C[C@@H](n2c(-c3ccccc3OCCO)nc3cnc(-c4ncccn4)cc32)C1` [Example 165, 4-chloro-N-((3S,5R)-5-(2-(2-(2-hydroxyethoxy)phenyl)-6-(pyrimidin-2-yl)-1H-imidazo[4,5-c]pyridin-1-yl)-1-methylpiperidin-3-yl)picolinamide] had an IC50 of under 100 nM.

In turn, `COc1ccc(Cl)cc1C(=O)N[C@H]1C[C@@H](n2c(-c3ncccc3F)nc3cnc(-c4nc[nH]n4)cc32)CN(C)C1` [Example 138, 5-chloro-N-((3S,5R)-5-(2-(3-fluoropyridin-2-yl)-6-(1H-1,2,4-triazol-3-yl)-1H-imidazo[4,5-c]pyridin-1-yl)-1-methylpiperidin-3-yl)-2-methoxybenzamide] yielded an IC50 of over 1000 nM.

Turning to `CC(C)Cc1nc2cnc(-c3nc[nH]n3)cc2n1[C@@H]1CCC[C@H](NC(=O)c2cc(F)ccc2F)[C@H]1O` [Example 121, 2,5-difluoro-N-((1S,2R,3R)-2-hydroxy-3-(2-isobutyl-6-(1H-1,2,4-triazol-3-yl)-1H-imidazo[4,5-c]pyridin-1-yl)cyclohexyl)benzamide], the IC50 lay within 100 to 500 nM.

`COc1ccc(Cl)cc1C(=O)N[C@@H]1CCCC[C@H](n2c(-c3c(F)cccc3OC)nc3cnc(-c4nc[nH]n4)cc32)[C@H]1O` [Example 109, 5-chloro-N-((1R,2S,3S)-3-(2-(2-fluoro-6-methoxyphenyl)-6-(1H-1,2,4-triazol-3-yl)-1H-imidazo[4,5-c]pyridin-1-yl)-2-hydroxycycloheptyl)-2-methoxybenzamide] showed an IC50 of 500 to 1000 nM.

For `CN1C[C@H](NC(=O)c2cc(F)ccn2)C[C@H](n2c(-c3ccccc3OCCO)nc3cnc(-c4ncccn4)cc32)C1` [Example 163, 4-fluoro-N-((3R,5S)-5-(2-(2-(2-hydroxyethoxy)phenyl)-6-(pyrimidin-2-yl)-1H-imidazo[4,5-c]pyridin-1-yl)-1-methylpiperidin-3-yl)picolinamide], the IC50 is under 100 nM.

`N#Cc1ccccc1-c1nc2cnc(-c3nc[nH]n3)cc2n1[C@@H]1CCC[C@H](N2COc3ccc(Cl)cc3C2=O)C1` [Example 203, 2-(1-((1R,3S)-3-(6-chloro-4-oxo-2H-benzo[e][1,3]oxazin-3(4H)-yl)cyclohexyl)-6-(1H-1,2,4-triazol-3-yl)-1H-imidazo[4,5-c]pyridin-2-yl)benzonitrile]: the IC50 was under 100 nM.

With `O=C(N[C@H]1CCC[C@@H](n2c(-c3ccccc3OCCO)nc3ccc(-c4nc[nH]n4)cc32)C1)c1cc(Cl)ccc1F` [Example 229, 5-chloro-2-fluoro-N-((1S,3R)-3-(2-(2-(2-hydroxyethoxy)phenyl)-6-(1H-1,2,4-triazol-3-yl)-1H-benzo[d]imidazol-1-yl)cyclohex-yl)benzamide], the IC50 is under 100 nM.

`CN1C[C@H](NC(=O)c2cc(Cl)ccn2)C[C@H](n2c(-c3ccccc3OCCO)nc3cnc(-c4ncccn4)cc32)C1` [Example 164, 4-chloro-N-((3R,5S)-5-(2-(2-(2-hydroxyethoxy)phenyl)-6-(pyrimidin-2-yl)-1H-imidazo[4,5-c]pyridin-1-yl)-1-methylpiperidin-3-yl)picolinamide] gave an IC50 of under 100 nM.

With `COc1ccc(Cl)cc1C(=O)N[C@@H]1C[C@@H](O)C[C@H](n2c(CC(C)C)nc3cnc(-c4ncccn4)cc32)C1` [Example 112, 5-chloro-N-((1S,3R,5R)-3-hydroxy-5-(2-isobutyl-6-(pyrimidin-2-yl)-1H-imidazo[4,5-c]pyridin-1-yl)cyclohexyl)-2-methoxybenzamide], the IC50 is over 1000 nM.

In turn, `NC1CC(N2Cc3ccc(F)cc3C2=O)CC(n2c(-c3ccccc3F)nc3cnc(-c4nc[nH]n4)cc32)C1` (stereo not shown) [Example 196, 2-(3-amino-5-(2-(2-fluorophenyl)-6-(1H-1,2,4-triazol-3-yl)-1H-imidazo[4,5-c]pyridin-1-yl)cyclohexyl)-6-fluoroisoindolin-1-one] showed an IC50 of under 100 nM.

`N[C@H]1[C@H](n2c(-c3ccccc3F)nc3ccc(-c4nc[nH]n4)cc32)CCC[C@@H]1N1Cc2ccc(Cl)cc2C1=O` [Example 242, 2-((1S,2S,3R)-2-amino-3-(2-(2-fluorophenyl)-6-(1H-1,2,4-triazol-3-yl)-1H-benzo[d]imidazol-1-yl)cyclohexyl)-6-chloroisoindolin-1-one] registered an IC50 of under 100 nM.

On to `CC(=O)N1C[C@@H](N2Cc3ccc(F)cc3C2=O)C[C@@H](n2c(-c3ccccc3F)nc3cnc(-n4nccn4)cc32)C1` [Example 199, 2-((3S,5R)-1-acetyl-5-(2-(2-fluorophenyl)-6-(2H-1,2,3-triazol-2-yl)-1H-imidazo[4,5-c]pyridin-1-yl)piperidin-3-yl)-6-fluoroisoindolin-1-one], for which the IC50 is under 100 nM.

On to `N#Cc1ccccc1-c1nc2cnc(-c3nc[nH]n3)cc2n1[C@@H]1CCC[C@H](NC(=O)c2cc(F)ccn2)C1` [Example 46, N-((1S,3R)-3-(2-(2-cyanophenyl)-6-(1H-1,2,4-triazol-3-yl)-1H-imidazo[4,5-c]pyridin-1-yl)cyclohexyl)-4-fluoropicolinamide], for which the IC50 is under 100 nM.

`CC(C)Oc1ccc(Cl)cc1C(=O)N[C@H]1CCC[C@@H](n2c(-c3ncccc3OC(F)F)nc3cnc(-c4nc[nH]n4)cc32)C1` [compound 65] had an IC50 of under 100 nM.

As to `CN1C[C@H](NC(=O)c2cc(Cl)ccn2)C[C@H](n2c(-c3ccccc3OCCO)nc3ccc(-c4ncccn4)cc32)C1` [Example 234, 4-chloro-N-((3R,5S)-5-(2-(2-(2-hydroxyethoxy)phenyl)-6-(pyr-imidin-2-yl)-1H-benzo[d]imid-azol-1-yl)-1-methylpiperidin-3-yl)picolinamide], the IC50 is under 100 nM.

The compound `CN1C[C@@H](NC(=O)c2cc(F)ccc2F)C[C@@H](n2c(-c3ccccc3OCCO)nc3cnc(-c4ncco4)cc32)C1` [Example 159, 2,5-difluoro-N-((3S,5R)-5-(2-(2-(2-hydroxyethoxy)phenyl)-6-(oxazol-2-yl)-1H-imidazo[4,5-c]pyridin-1-yl)-1-methylpiperidin-3-yl)benzamide] returned an IC50 of over 1000 nM.

The compound `Cc1coc(-c2cc3c(cn2)nc(-c2ccccc2F)n3[C@@H]2CCC[C@H](N3Cc4ccc(F)cc4C3=O)[C@H]2O)n1` [Example 193, 6-fluoro-2-((1S,2S,3R)-3-(2-(2-fluorophenyl)-6-(4-methyloxazol-2-yl)-1H-imidazo[4,5-c]pyridin-1-yl)-2-hydroxycyclohexyl)isoindolin-1-one] displayed an IC50 of under 100 nM.

For `N[C@@H]1[C@@H](NC(=O)c2cc(F)ccc2F)CCC[C@H]1n1c(-c2ccccc2F)nc2cnc(-c3nc[nH]n3)cc21` [Example 127, N-((1S,2R,3R)-2-amino-3-(2-(2-fluorophenyl)-6-(1H-1,2,4-triazol-3-yl)-1H-imidazo[4,5-c]pyridin-1-yl)cyclohexyl)-2,5-difluorobenzamide], the IC50 is under 100 nM.

Compound `O=C(NC1CCCCC(n2c(-c3ccccc3F)nc3cnc(-c4nc(C(F)(F)F)co4)cc32)C1O)c1cc(F)ccc1F` (stereo not shown) [Example 126, 2,5-difluoro-N-(3-(2-(2-fluorophenyl)-6-(4-(trifluoromethyl)oxazol-2-yl)-1H-imidazo[4,5-c]pyridin-1-yl)-2-hydroxycycloheptyl)benzamide] gave an IC50 of under 100 nM.

In the case of `CC(=O)N1C[C@@H](NC(=O)c2cc(F)ccn2)C[C@@H](n2c(-c3ccccc3F)nc3cnc(-c4nc(C)co4)cc32)C1` [Example 166, N-((3S,5R)-1-acetyl-5-(2-(2-fluorophenyl)-6-(4-methyloxazol-2-yl)-1H-imidazo[4,5-c]pyridin-1-yl)piperidin-3-yl)-4-fluoropicolinamide], the IC50 is under 100 nM.
